For the assay, the system named is M. mycetomatis genome strain MM55. In words: CLSI M38-A2 based in vitro susceptibility screening (XTT or resazurin), growth at fixed concentration. The format is cell-based, Madurella mycetomatis. Conditions: Madurella mycetomatis; for Percent fungal survival at 100 µM: read-out: Percentage survival at 100um, 100 uM A (second replicate column). A general note: Formazan colour is commonly taken as a measure of viable cells.

[1] abbreviates: mean of three replicates, read-out: Percentage survival at 25um, 25 uM mean.
[2] abbreviates: replicate A, read-out: Percentage survival at 25um, 25 um A.
[3] abbreviates: replicate B, read-out: Percentage survival at 25um, 25 uM B.
Setting [4] is: replicate C, read-out: Percentage survival at 25um, 25 uM C.
The mark [5] stands for this setting: mean of three replicates, read-out: Percentage survival at 100um, 100 uM mean.
Setting [6] is: replicate 1, read-out: Percentage survival at 100um, 100 uM A (first replicate column).
Where [7] appears, read: replicate 3, read-out: Percentage survival at 100um, 100 uM A (third replicate column).
The mark [8] stands for this setting: first replicate column, read-out: Percentage survival at 100um, 100 uM A.
Where [9] appears, read: second replicate column, read-out: Percentage survival at 100um, 100 uM A.
Setting [10] is: third replicate column, read-out: Percentage survival at 100um, 100 uM A.
Where [11] appears, read: mean of three, M. mycetomatis MM55, read-out: Percentage survival at 25um, 25 uM mean.
[12] abbreviates: replicate A, M. mycetomatis MM55, read-out: Percentage survival at 25um, 25 um A.
The mark [13] stands for this setting: replicate B, M. mycetomatis MM55, read-out: Percentage survival at 25um, 25 uM B.
The mark [14] stands for this setting: replicate C, M. mycetomatis MM55, read-out: Percentage survival at 25um, 25 uM C.
Setting [15] is: mean of three, M. mycetomatis MM55, read-out: Percentage survival at 100um, 100 uM mean.
Where [16] appears, read: replicate 1, M. mycetomatis MM55, read-out: Percentage survival at 100um, 100 uM A (first replicate column).
[17] abbreviates: replicate 2, M. mycetomatis MM55.
[18] abbreviates: replicate 3, M. mycetomatis MM55, read-out: Percentage survival at 100um, 100 uM A (third replicate column).
[19] abbreviates: mean of replicates, MM55, read-out: Percentage survival at 25um, 25 uM mean.
[20] abbreviates: replicate A, MM55, read-out: Percentage survival at 25um, 25 um A.
Where [21] appears, read: replicate B, MM55, read-out: Percentage survival at 25um, 25 uM B.
[22] abbreviates: replicate C, MM55, read-out: Percentage survival at 25um, 25 uM C.
Setting [23] is: mean of replicates, MM55, read-out: Percentage survival at 100um, 100 uM mean.
[24] abbreviates: replicate 1, MM55, read-out: Percentage survival at 100um, 100 uM A.
The mark [25] stands for this setting: replicate 2, MM55, read-out: Percentage survival at 100um, 100 uM A.
Where [26] appears, read: replicate 3, MM55, read-out: Percentage survival at 100um, 100 uM A.
Where [27] appears, read: mean, read-out: Percentage survival at 25um, 25 uM mean.
The mark [28] stands for this setting: mean, read-out: Percentage survival at 100um, 100 uM mean.
The mark [29] stands for this setting: replicate (first column), read-out: Percentage survival at 100um, 100 uM A.
The mark [30] stands for this setting: replicate (second column), read-out: Percentage survival at 100um, 100 uM A.
[31] abbreviates: replicate (third column), read-out: Percentage survival at 100um, 100 uM A.

Here are results for 16 molecules from article PMC8815882, “Screening the pandemic response box identified benzimidazole carbamates, Olorofim and ravuconazole as promising drug candidates for the treatment of eumycetoma” (PLoS Neglected Tropical Diseases, 2022).

Each structure is given as a SMILES string. Where two headings read alike, the source gives them in different places.

In the case of `CCNC(=O)Nc1cn2c(-c3ncc(CC)cn3)cc(-c3cccnc3)cc2n1` [MMV1782403], the activity at 25 µM is 109% under setting [1], 109% under setting [2], 132% under setting [3] and 85.2% under setting [4]. In addition, the activity at 100 µM is, setting by setting: under setting [5], 84.3%; under setting [6], 77.2%; under setting [7], 96.3%. For the same molecule, the Percent fungal survival at 100 µM (replicate 2) came out at 79.4%.
For the molecule `COc1ccc(NC(=O)c2cc3ccccn3n2)cc1` [MMV374187], the activity at 25 µM by setting is: under setting [1], 100%; under setting [2], 94.6%; under setting [3], 115%; under setting [4], 90.7%. The activity at 100 µM under setting [5] was determined as 65.8%, the activity at 100 µM under setting [6] turned out to be 52% and the activity at 100 µM under setting [7] amounted to 84.9%. Further, where the note is “replicate 2”, the Percent fungal survival at 100 µM came to 60.6%.
As for `COc1ccc(C2CNC(=O)C2)cc1OC1CCCC1` (centres unmarked) [MMV003738], the activity at 25 µM amounted to 84.1% under setting [1], 73% under setting [2], 88.3% under setting [3] and 90.9% under setting [4]. Also, the activity at 100 µM was 78.1% under setting [8], 75% under setting [5], 63% under setting [9] and 84% under setting [10].
As for `CC1CN(c2ncnc3c2c(-c2ccccc2)cn3-c2ccc(F)cc2)CC(C)O1` (centres unmarked) [MMV093250], the activity at 25 µM is 63.7% under setting [11], 69.5% under setting [12], 65.3% under setting [13] and 56.2% under setting [14]. The activity at 100 µM reads like this: under setting [15], 70%; under setting [16], 65.7%; under setting [18], 63.6%. Moreover, the Percent fungal survival at 100 µM under setting [17] was found to be 80.7%.
For the molecule `Cn1c2ccccc2c(=O)c2c(O)cccc21` [MMV1580500], the activity at 25 µM amounted to 65% under setting [19], 63.1% under setting [20], 67.8% under setting [21] and 64.2% under setting [22]. Moreover, the activity at 100 µM runs as follows: under setting [23], 58.6%; under setting [24], 66.8%; under setting [25], 57.2%; under setting [26], 51.8%.
For `CC(=O)Nc1cc(NS(=O)(=O)c2ccc(Cl)cc2)cc2c(Cl)n[nH]c12` [MMV1579779], the activity at 25 µM (mean of replicates, read-out: Percentage survival at 25um, 25 uM mean) was found to be 83.8%; the activity at 25 µM under setting [2] came out at 80.2%; the activity at 25 µM under setting [3] came out at 89.2%; the activity at 25 µM under setting [4] worked out at 82.1%. The activity at 100 µM (mean of replicates, read-out: Percentage survival at 100um, 100 uM mean) amounted to 82.2%; the activity at 100 µM (replicate 1, read-out: Percentage survival at 100um, 100 uM A) was 78.5%; the activity at 100 µM (replicate 2, read-out: Percentage survival at 100um, 100 uM A) is 74.6%; the activity at 100 µM (replicate 3, read-out: Percentage survival at 100um, 100 uM A) is 93.4%.
For the molecule `Nc1nc(O)c2ncn(COCCO)c2n1` [MMV001961], the activity at 25 µM runs as follows: under setting [1], 90.3%; under setting [2], 88.7%; under setting [3], 94.5%; under setting [4], 87.8%. For the same molecule, the activity at 100 µM was found to be 88.4% under setting [8], 84.1% under setting [5], 78.9% under setting [9] and 85% under setting [10].
Take `O=C(Nc1nnc(-c2ccccc2)o1)c1ccc(F)cc1` [MMV1578578]: the activity at 25 µM amounted to 24.9% under setting [11], 69.5% under setting [12], 1.3% under setting [13] and 3.74% under setting [14]. For the same molecule, the activity at 100 µM reads like this: under setting [15], 0.7%; under setting [16], -1.02%; under setting [18], 1.43%. Further, under setting [17], the Percent fungal survival at 100 µM came to 1.69%.
For `Cc1ncc([N+](=O)[O-])n1CC(C)O` (centres unmarked) [MMV002287], the activity at 25 µM is 111% under setting [1], 140% under setting [2], 90.9% under setting [3] and 103% under setting [4]. For the same molecule, the activity at 100 µM under setting [5] turned out to be 100%, the activity at 100 µM under setting [6] is 89.4% and the activity at 100 µM under setting [7] worked out at 90.2%. In addition, under “replicate 2”, the Percent fungal survival at 100 µM stood at 122%.
Consider `Cc1oncc1C(=O)Nc1ccc(C(F)(F)F)cc1` [MMV003291], for which the activity at 25 µM runs as follows: under setting [1], 85.3%; under setting [2], 82.1%; under setting [3], 92.4%; under setting [4], 81.5%. For the same molecule, the activity at 100 µM under setting [8] amounted to 55.9%, the activity at 100 µM under setting [5] came out at 62.5%, the activity at 100 µM under setting [9] is 52.4% and the activity at 100 µM under setting [10] was determined as 79%.
With `Cc1onc(-c2ccccc2Cl)c1C(=O)N[C@@H]1C(=O)N2[C@@H]1SC(C)(C)[C@@H]2C(=O)O` [MMV002740], the activity at 25 µM stood at 65.2% under setting [11], 60.8% under setting [12], 53.9% under setting [13] and 80.9% under setting [14]. The activity at 100 µM is 92.7% under setting [15], 88.1% under setting [16] and 112% under setting [18]. Under setting [17], the Percent fungal survival at 100 µM was determined as 77.7%.
`CN(C)c1[nH]c(=O)ncc1F` [MMV1782223]: the activity at 25 µM under setting [27] turned out to be 93%, the activity at 25 µM under setting [2] is 97%, the activity at 25 µM under setting [3] came out at 101% and the activity at 25 µM under setting [4] came out at 80.9%. For the same molecule, the activity at 100 µM worked out at 82.8% under setting [28], 84% under setting [29], 75.3% under setting [30] and 88.9% under setting [31].
On to `CC[N+]1(C/C2=C/CCCCCC2)CCC(NC(=O)C2c3cc(Cl)ccc3Oc3ccc(Cl)cc32)CC1` (centres unmarked) [MMV1580489], for which the activity at 25 µM by setting is: under setting [1], 93.8%; under setting [2], 90.3%; under setting [3], 102%; under setting [4], 88.6%. Further, the activity at 100 µM is, setting by setting: under setting [8], -9.19%; under setting [5], -2.01%; under setting [9], -1.42%; under setting [10], 4.58%.
Consider `COc1cc(NCc2ccc3nc(N)nc(N)c3c2C)cc(OC)c1OC` [MMV1580173], for which the activity at 25 µM reads like this: under setting [27], 73.6%; under setting [2], 96.5%; under setting [3], 46.2%; under setting [4], 78.3%. For the same molecule, the activity at 100 µM amounted to 55.4% under setting [28], 74.1% under setting [29], 4.19% under setting [30] and 88% under setting [31].
Consider `CC(=O)Oc1ccccc1C(=O)Nc1ncc([N+](=O)[O-])s1` [MMV688991], for which the activity at 25 µM worked out at 103% under setting [19], 90% under setting [20], 88.2% under setting [21] and 131% under setting [22]. The activity at 100 µM was 68% under setting [23], 76.1% under setting [24], 57.8% under setting [25] and 70.1% under setting [26].
As to `C[C@H]1[C@@H](c2cccc(C(F)(F)F)c2)OC(=O)N1C(=O)NCc1cncc2ccccc12` [MMV1593533], the activity at 25 µM is 50% under setting [27], 54.1% under setting [2], 42.5% under setting [3] and 53.3% under setting [4]. Also, the activity at 100 µM under setting [28] was determined as 36.1%, the activity at 100 µM under setting [29] amounted to 6.17%, the activity at 100 µM under setting [30] was 44.6% and the activity at 100 µM under setting [31] stood at 57.6%.
